Experimental data from article PMC12147445, “Dual-Active Nanoimmunomodulators for the Synergistic Enhancement of the Antitumor Efficacy of Photodynamic Immunotherapy” (Biomaterials Research, 2025).

What was measured:
[1] = Drug content / loading efficiency (PIX by UV-Vis, MAC by HPLC); assay type: physicochemical; conditions: UV-Vis at 630 nm, sample diluted to 1 mg/ml
Method: CPP and CPPM were diluted to 1 mg/ml each. MAC was quantified by HPLC with a mobile phase A of water (0.2% TFA), a mobile phase B of acetonitrile, a flow rate of 1 ml/min, and a gradient elution of 10% to 100% B. The peak area of different concentrations of MAC was tested at 277 nm out, and the standard curve was plotted and the drug concentration was tested. PIX was quantified by ultraviolet–visible absorption spectrometry (UV–Vis), and the absorption values of different concentrations of PIX were determined at 630 nm, and the standard curve was plotted and the concentration of PIX was tested. Subsequently, the drug release profiles were determined by HPLC in release media at potential of hydrogen (pH) 5.3 and 7.4.

CT26 cells [2] = assay: ICD immunofluorescence assay (CRT, HMGB1); assay type: cell-based, mouse; conditions: CT26, PIX 6 μg/ml, MAC 6.72 μg/ml, 630 nm 29.8 mW cm^-2 10 min
Method: MAC, CPP, and CPPM were added to CT26 cells, and the light group was incubated for 6 h and then irradiated with light-emitting diode light (630 nm, 29.8 mW cm^−2) for 10 min. After continuing incubation for 4 h, paraformaldehyde (4%) and 0.1% Triton X-100 were added for fixation and permeabilization of cells, respectively. Subsequently, the cells were incubated with CRT or HMGB1 fluorescent primary antibody overnight ([…]), secondary antibody for 1 h, and DAPI for 20 min and then observed by microscopy. The PIX concentration was 6 μg/ml, and the MAC concentration was 6.72 μg/ml.

CT26 lung metastasis = assay: In vivo antitumor metastasis study (lung metastasis model); set-up: species or system BALB/c female mice; conditions: 10 d of treatment, n = 3
Method: The mouse lung metastasis model was established by inoculating CT26 cells on the back of BALB/c female mice and injecting 2 × 10^6 CT26 cells labeled using green fluorescent protein through the tail vein when the tumor volume of the loaded mice reached 100 mm^3 (Fig. S2C). The groups were treated in the same manner as those in the immune response study. The mice were executed after 10 d of treatment, and the lung tissues of the mice were excised and photographed, and the metastatic lung nodules were quantified and H&E-stained for further examination of the extent of lung metastasis.

CT26 cells [3] = assay: Cytotoxicity test by the MTT method; assay type: cell-based, mouse; conditions: for cytotoxicity (MTT), dark: CT26, no light, highest PIX 6 μg/ml and MAC 6.72 μg/ml, 6 h + 24 h
Method: CT26 cells were seeded into 96-well plates, and materials with different concentration gradients were prepared. Different materials were added into 96-well plates at 100 μl per well according to the concentration gradient, respectively. The highest concentration of PIX in CPP was 6 μg/ml. The highest concentrations of PIX and MAC in CPPM were 6 and 6.72 μg/ml, respectively. After 6 h of incubation, the CPP light group and CPPM light group were irradiated using infrared light for 3 min, and after 24 h, 20 μl of MTT reagent was added, and the absorbance was detected by an enzyme meter (570 nm) and the cell viability was calculated.

[4] = In vitro 1O2 assay (Singlet Oxygen Sensor Green); assay type: physicochemical; conditions: PBS, SOSG probe, 630-nm laser, measured every 15 s
Method: To further explore the ROS-producing behavior of CPPM, MAC, CPP, and CPPM were prepared into 1-ml solutions with phosphate-buffered saline, and 10 μl of reactive oxygen Singlet Oxygen Sensor Green probe was added to each set of solutions. The resulting fluorescence intensity was measured as F0 in an F-302 model fluorescence spectrophotometer (excitation wavelength of 488.0 nm, wavelength range of 500.0 to 550.0 nm), and the fluorescence intensity was measured as Ft under 630-nm laser irradiation every 15 s. The concentration of PIX in CPP was 3 μg/l. The concentrations of PIX and MAC in CPPM were 3 and 3.3 μg/l, respectively.

CT26 cells [5] = assay: Intracellular ROS detection (DCFH-DA probe); assay type: cell-based, mouse; conditions: CT26, 6 h incubation
Method: The CT26 cells were incubated for 6 h with the addition of MAC, CPP, and CPPM materials, respectively, after wall culture. Subsequently, a 2,7-dichlorodihydrofluorescein diacetate probe was added to stain the cells for 30 min, and the CPP light group and CPPM light group were illuminated for 3 min, and the cells were observed and analyzed by microscopy. The experimental groupings were (the same groupings as below): blank group (blank), MAC group (MAC), CPP group (CPP), CPP light exposure group (CPP+), CPPM group (CPPM), and CPPM light exposure group (CPPM+). The concentration of PIX in CPP was 6 μg/l. The concentrations of PIX and MAC in CPPM were 6 and 6.72 μg/l, respectively.

CT26 cells [6] = assay: Flow cytometric apoptosis assay; assay type: cell-based, mouse; conditions: flow cytometry annexin V-FITC/PI, 6 h incubation; for apoptosis of CT26 cells, dark: no light
Method: After the CT26 cells were cultured on the wall, MAC, CPP, and CPPM were added and incubated for 6 h, and the light group was light-exposed for 5 min, respectively. After the cells were washed, 1× annexin V–FITC (195 μl), annexin V–FITC (5 μl), and PI staining solution (10 μl) were added, respectively, and the reaction was detected by flow cytometry after 10 to 15 min. The concentrations of PIX and MAC in CPPM were […] and 3.3 μg/l, respectively.

CT26 subcutaneous tumor = assay: Tumor growth inhibition, CT26 subcutaneous tumor model; assay type: in vivo, BALB/c female mice; conditions: for antitumor effect (tumor size, volume, weight), no light: MAC 2.0 mg/kg, PIX 1.8 mg/kg, tail vein every 2 d x5, n = 5
Method: (§1) CT26 cells were inoculated on the back of BALB/c female mice to construct a subcutaneous tumor model (Fig. S2A). The groups were treated as follows (the same groupings as below): MAC (2.0 mg/kg), CPP (PIX content of 1.8 mg/kg), and CPPM (PIX and MAC contents of 1.8 and 2.0 mg/kg, respectively) were injected separately through the tail vein, and the light group was irradiated using a laser for 6 h after drug administration for 10 min (intensity of 50% and power of 0.68 W). The mice were treated every 2 d for a total of 5 treatments, and tumor volume and body weight were measured every other day. On day 18, the mice were executed by cervical dislocation, and their blood was removed and dissected. The spleens of the mice were weighed, and the mouse tumor tissues were stained for Ki67, terminal deoxynucleotidyl transferase dUTP nick end labeling (TUNEL), and CD3/CD8. Different concentrations of CPPM solutions were prepared with saline; 100 μl of CPPM solution was added into 2 ml of mouse blood and mixed well and incubated in a 37 °C water bath for 1 h. After centrifugation, 100 μl of the supernatant was taken into a 96-well plate, and the absorbance value was measured by an enzyme-labeling instrument at a wavelength of 540 nm and the hemolysis rate was calculated. In addition, blood biochemistry and blood routine indexes were analyzed, and hematoxylin–eosin (H&E) staining was performed on tumor tissues and major organs.

[7] = Blood routine examination; assay type: in vivo, BALB/c female mice; conditions: CT26 tumor mice, i.v. every 2 d x5, day 18, no light, mean ± SD
Method: as §1

Compound: C (PEG5000-Mal)-VRARTR-PIX [CPP, PEG5000-Mal assembled with CP; CPP+ is the light exposure group]
- loading efficiency of PIX [1]: 12.09%
- CRT expression on the cell membrane under PDT (CT26 cells [2]): increase the expression of CRT on the cell membrane
- HMGB1 in tumor cells under PDT (CT26 cells [2]): significantly attenuated
- lung metastasis, light (CT26 lung metastasis; laser): a few lung metastases were visible
- lung metastasis, no light (CT26 lung metastasis): lung metastasis obviously occurred
- cytotoxicity (MTT), light (CT26 cells [3]; CT26, 6 h incubation then light 3 min, 24 h, highest PIX 6 μg/ml): stronger cytotoxicity
- cytotoxicity (MTT), dark (CT26 cells [3]): no significant toxic effects
- 1O2 generation [4]: could produce ^1O2 under light conditions
- intracellular ROS, light (CT26 cells [5]; light 3 min): showed green fluorescence
- intracellular ROS, dark (CT26 cells [5]; no light): did not produce ROS
- apoptosis of CT26 cells, light (CT26 cells [6]; light 5 min): significantly higher
- apoptosis of CT26 cells, dark (CT26 cells [6]): lower apoptosis rates
- antitumor effect (tumor size, volume, weight), no light (CT26 subcutaneous tumor): low antitumor properties
- antitumor effect (tumor size, volume, weight), light (CT26 subcutaneous tumor; PIX 1.8 mg/kg (MAC 2.0 mg/kg), tail vein every 2 d x5, laser 10 min 6 h after dosing, n = 5): able to inhibit tumor growth

Compound: CCCNS(=O)(=O)Nc1ncnc(OCCOc2ncc(Br)cn2)c1-c1ccc(Br)cc1 [MAC, Macitentan, reference compound]
- lung metastasis, no light (CT26 lung metastasis): lung metastasis obviously occurred
- cytotoxicity (MTT), dark (CT26 cells [3]): no significant toxic effects
- PCT [7]: 0.21 ± 0.06%
- PDW [7]: 17.89 ± 0.54
- Mon ([7]; reference 0.00–0.30): 5.54 ± 1.77 10^9/l
- Gran ([7]; reference 0.10–1.80): 116.23 ± 32.29 10^9/l
- Lymph ([7]; reference 0.70–5.70): 24.74 ± 5.26 10^9/l
- WBC ([7]; reference 0.80–6.80): 132.48 ± 37.09 10^9/l
- RBC ([7]; reference 6.36–9.42): 7.82 ± 0.54 10^12/l
- RDW ([7]; reference 13.00–17.00): 14.91 ± 0.48%
- MCH ([7]; reference 15.80–19.00): 16.61 ± 1.12 pg
- HCT ([7]; reference 34.60–44.60): 37.4 ± 2.73%
- HCV ([7]; reference 48.20–58.30): 52.75 ± 2.51 fL
- HGB ([7]; reference 110.00–143.00): 115.11 ± 15.08 g/L
- MCHC ([7]; reference 302.00–353.00): 318.78 ± 20.68 g/L
- apoptosis of CT26 cells, dark (CT26 cells [6]): lower apoptosis rates
- antitumor effect (tumor size, volume, weight), no light (CT26 subcutaneous tumor): low antitumor properties
